Assays:
[1] = Liver microsomes study, Phase I stability (HLM); type: in vitro ADME, human; conditions: pH 7.4; human liver microsomes 0.5 mg/mL, 1 μM test article; read-out: HLM Clint
Summary of the method: (§1)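 Phase I turnover was followed by LC/MS/MS of parent compound remaining at 0, 10, 30 and 90 min in NADPH-fortified rat or human microsomes, with cold acetonitrile quench. Half-life and intrinsic clearance were derived from the log-linear depletion slope and the inverse protein concentration.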

JAK1 = biological target: T1, JAK1 (Homo sapiens, UniProt P23458); assay: JAK1 microfluidic kinase assay (Caliper EZ Reader II, FAM labeled peptide substrate); type: biochemical; conditions: IC50 JAK1 (5 nM) (1 m MATP), JAK1 5 nM, 1 mM ATP
T1 construct: purchased Carna Biosciences
T1 sequence (P23458 whole entry): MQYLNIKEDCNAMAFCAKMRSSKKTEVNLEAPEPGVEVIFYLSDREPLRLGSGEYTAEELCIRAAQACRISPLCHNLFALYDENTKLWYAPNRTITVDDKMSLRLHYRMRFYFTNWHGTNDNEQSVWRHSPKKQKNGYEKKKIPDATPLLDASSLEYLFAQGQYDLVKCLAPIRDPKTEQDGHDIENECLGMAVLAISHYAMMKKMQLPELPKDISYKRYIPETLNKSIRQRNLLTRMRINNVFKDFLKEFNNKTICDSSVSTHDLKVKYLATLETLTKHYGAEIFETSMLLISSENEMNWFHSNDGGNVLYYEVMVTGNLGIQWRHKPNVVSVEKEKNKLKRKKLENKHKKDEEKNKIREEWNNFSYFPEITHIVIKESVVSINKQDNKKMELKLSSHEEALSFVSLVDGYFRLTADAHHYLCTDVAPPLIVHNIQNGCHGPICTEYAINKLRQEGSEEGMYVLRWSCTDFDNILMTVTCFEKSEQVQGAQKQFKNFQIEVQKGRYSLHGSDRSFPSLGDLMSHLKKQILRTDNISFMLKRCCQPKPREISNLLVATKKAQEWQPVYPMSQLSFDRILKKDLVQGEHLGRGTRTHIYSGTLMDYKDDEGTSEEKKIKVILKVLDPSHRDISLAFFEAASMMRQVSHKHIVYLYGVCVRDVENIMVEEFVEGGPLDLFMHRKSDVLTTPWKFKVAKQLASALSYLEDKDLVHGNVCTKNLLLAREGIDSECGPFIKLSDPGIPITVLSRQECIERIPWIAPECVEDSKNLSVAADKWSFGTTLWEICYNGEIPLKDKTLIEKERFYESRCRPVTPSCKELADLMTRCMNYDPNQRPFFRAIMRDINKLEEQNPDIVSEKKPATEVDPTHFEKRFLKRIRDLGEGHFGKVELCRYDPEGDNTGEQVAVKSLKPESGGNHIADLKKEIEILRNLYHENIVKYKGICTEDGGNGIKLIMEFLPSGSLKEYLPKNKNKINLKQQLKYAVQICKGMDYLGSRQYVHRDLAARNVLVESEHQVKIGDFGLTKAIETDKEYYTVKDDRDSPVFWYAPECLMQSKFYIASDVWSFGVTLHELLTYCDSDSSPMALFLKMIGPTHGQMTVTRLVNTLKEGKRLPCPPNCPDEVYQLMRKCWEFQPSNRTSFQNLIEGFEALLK
Summary of the method: (§2)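 Compounds, serially diluted 3-fold from 5 μM, were preincubated 10 min with enzyme at ambient temperature before reaction in HEPES/Brij35/MgCl2/DTT buffer (1% DMSO final), tuned to 10% peptide conversion. After EDTA stop, FAM-peptide phosphorylation was measured by Caliper EZ Reader II; IC50 fitted from percent-inhibition curves.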

TYK2 = biological target: T2, TYK2 (Homo sapiens, UniProt P29597); assay: TYK2 microfluidic kinase assay (Caliper EZ Reader II, FAM labeled peptide substrate); type: biochemical; conditions: IC50 TYK2 ([…]) (1 mM ATP), TYK2 […], 1 mM ATP
T2 construct: purchased Carna Biosciences
T2 sequence (P29597 whole entry): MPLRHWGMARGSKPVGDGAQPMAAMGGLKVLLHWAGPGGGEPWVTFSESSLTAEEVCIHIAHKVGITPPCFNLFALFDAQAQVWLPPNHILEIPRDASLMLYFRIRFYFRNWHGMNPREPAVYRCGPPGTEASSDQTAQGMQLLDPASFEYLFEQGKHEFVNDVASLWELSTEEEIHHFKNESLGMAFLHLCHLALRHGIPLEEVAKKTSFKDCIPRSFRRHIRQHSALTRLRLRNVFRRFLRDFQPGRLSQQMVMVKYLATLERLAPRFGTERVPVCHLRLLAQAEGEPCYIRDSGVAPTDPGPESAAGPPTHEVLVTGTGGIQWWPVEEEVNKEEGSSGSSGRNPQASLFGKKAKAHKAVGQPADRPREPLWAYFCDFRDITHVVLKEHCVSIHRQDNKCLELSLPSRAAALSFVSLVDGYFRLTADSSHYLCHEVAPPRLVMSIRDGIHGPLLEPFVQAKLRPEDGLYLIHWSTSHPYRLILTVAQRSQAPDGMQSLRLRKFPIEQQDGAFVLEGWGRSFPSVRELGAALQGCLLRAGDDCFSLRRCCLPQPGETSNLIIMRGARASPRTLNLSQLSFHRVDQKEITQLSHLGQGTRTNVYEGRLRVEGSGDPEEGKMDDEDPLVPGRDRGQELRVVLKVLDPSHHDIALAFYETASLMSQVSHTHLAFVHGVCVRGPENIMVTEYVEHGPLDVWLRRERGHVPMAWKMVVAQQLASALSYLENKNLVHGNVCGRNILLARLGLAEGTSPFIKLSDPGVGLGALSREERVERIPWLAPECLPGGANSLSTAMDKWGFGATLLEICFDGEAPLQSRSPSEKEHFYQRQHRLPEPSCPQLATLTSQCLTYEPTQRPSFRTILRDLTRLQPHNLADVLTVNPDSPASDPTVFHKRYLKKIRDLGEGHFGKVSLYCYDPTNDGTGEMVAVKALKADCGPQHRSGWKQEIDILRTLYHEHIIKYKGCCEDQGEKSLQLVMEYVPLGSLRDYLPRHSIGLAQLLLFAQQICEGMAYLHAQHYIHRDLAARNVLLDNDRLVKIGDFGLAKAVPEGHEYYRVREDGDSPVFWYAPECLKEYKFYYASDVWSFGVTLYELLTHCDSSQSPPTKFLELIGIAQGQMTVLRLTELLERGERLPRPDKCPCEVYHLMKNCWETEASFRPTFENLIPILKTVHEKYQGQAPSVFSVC
Summary of the method: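 Percent inhibition of peptide phosphorylation, read by microfluidic mobility shift, gave IC50s. Compounds were preincubated with enzyme 10 min before reaction; timing was kinase-specific (JAK1 120 min, TYK2 10 min, JAK2 20 min, JAK2V617F 30 min).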

[2] = Liver microsomes study, Phase I stability (RLM); type: in vitro ADME, rat; conditions: pH 7.4; rat liver microsomes 0.5 mg/mL, 1 μM test article; read-out: RLM Clint
Summary of the method: as §1

JAK2 = biological target: T3, JAK2 (Homo sapiens, UniProt O60674); assay: JAK2 microfluidic kinase assay (Caliper EZ Reader II, FAM labeled peptide substrate); type: biochemical; conditions: IC50 JAK2 ([…]) (1 mM ATP), 1 mM ATP
T3 construct: purchased Carna Biosciences
T3 sequence (O60674 whole entry): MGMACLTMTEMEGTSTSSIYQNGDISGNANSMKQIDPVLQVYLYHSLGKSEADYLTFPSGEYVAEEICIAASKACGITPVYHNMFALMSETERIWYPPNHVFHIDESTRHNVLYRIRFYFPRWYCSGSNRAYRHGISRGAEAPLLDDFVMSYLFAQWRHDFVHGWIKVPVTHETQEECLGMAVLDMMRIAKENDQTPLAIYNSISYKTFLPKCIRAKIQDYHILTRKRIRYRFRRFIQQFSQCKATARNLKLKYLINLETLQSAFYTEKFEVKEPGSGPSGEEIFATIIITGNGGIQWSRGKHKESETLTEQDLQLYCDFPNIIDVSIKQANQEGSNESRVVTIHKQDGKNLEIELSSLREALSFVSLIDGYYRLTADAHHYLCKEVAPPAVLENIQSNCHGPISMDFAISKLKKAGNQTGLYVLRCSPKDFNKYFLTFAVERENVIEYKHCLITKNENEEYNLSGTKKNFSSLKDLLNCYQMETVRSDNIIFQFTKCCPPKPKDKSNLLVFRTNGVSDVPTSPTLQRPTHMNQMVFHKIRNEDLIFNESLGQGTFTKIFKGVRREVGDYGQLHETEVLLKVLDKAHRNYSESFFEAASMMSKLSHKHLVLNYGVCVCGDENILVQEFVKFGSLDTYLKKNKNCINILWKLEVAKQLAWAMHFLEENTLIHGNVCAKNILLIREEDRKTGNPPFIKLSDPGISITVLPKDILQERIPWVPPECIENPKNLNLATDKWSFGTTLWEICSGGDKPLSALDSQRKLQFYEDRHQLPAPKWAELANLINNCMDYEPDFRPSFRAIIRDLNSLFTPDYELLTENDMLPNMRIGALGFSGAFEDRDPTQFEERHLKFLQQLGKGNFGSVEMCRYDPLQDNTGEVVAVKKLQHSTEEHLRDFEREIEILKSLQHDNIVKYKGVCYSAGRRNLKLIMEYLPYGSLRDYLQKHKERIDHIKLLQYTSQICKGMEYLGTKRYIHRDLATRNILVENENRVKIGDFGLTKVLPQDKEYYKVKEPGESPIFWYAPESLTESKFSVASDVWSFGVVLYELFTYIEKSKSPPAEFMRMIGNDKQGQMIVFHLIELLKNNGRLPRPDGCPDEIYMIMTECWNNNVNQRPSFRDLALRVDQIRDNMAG
Summary of the method: as §2

[3] = Mini-pig dermal pharmacokinetic study; type: in vivo, Guangxi Bama mini-pigs; conditions: topical administration
From the text: The aim of this study was to obtain the topical distribution of test articles in mini-pig after topical administration. Test articles were formulated in 50% PEG400, 10% transcutol and 40% PEG3350 (50% in water), and then applied to male Guangxi Bama mini-pigs (17-20 kg). Twenty-four hour prior to dosing, the hair of the mini-pig was shaved in left and right sides of the back. Two areas at least 5 cm apart at each side of the back were exposed (a total of four areas, each of which was about 112 cm^2). At the time zero, the test article was dosed to the exposed skins with […]. After dosing, the blood and skin samples were collected at 0.5, 1, 3, 6 hour. The blood was taken via venipuncture, and collected to the tubes containing heparin sodium as the anticoagulant. Exposed skin was washed with soap and water before skin sample was collected. Upon the dosed skin the punch biopsy from the epidermis layer to the muscle layer were taken at each time point. Epidermis, dermis, subcutis and subcutaneous muscle were quickly separated, weighed and frozen in dry ice. Epidermis and dermis were homogenized in 1:3 (w/v) normal saline. Homogenized samples were extracted with 3 fold volumes of acetonitrile and quantified against a standard curve with LC-MS/MS system.

- microsomal CLint at 1 μM [1]: 456 µL/min/mg
- IC50 (JAK1): 15.2 nM
- IC50 (TYK2): 1.07 nM
- microsomal CLint at 1 μM [2]: 69.4 µL/min/mg
- IC50 (JAK2): < 0.25 nM
- AUC(0-t) ([3]; male, Guangxi Bama, minipig, topical or ocular, 25 μL/m^2 at 6 ml/mL, plasma, read-out: Plasma AUC0-last): 17.3 ng·h/mL
- Dermis/plasma ratio (AUC) [3]: 273X
- Epiermis/plasma ratio (AUC) [3]: 4396X
Structure (SMILES): Cc1cnc(Nc2cnn(C3CC(C)(C)OC(C)(C)C3)c2)nc1-c1ccc(C(=O)N[C@@H](C)C#N)cc1 [Example 173, (S)—N-(1-cyanoethyl)-4-(5-methyl-2-((1-(2,2,6,6-tetramethyltetrahydro-2H-pyran-4-yl)-1H-pyrazol-4-yl)amino)pyrimidin-4-yl)benzamide]

From US12595253B2, “Benzamides of pyrazolylamino-pyrimidinyl derivatives, and compositions and methods thereof” (LYNK PHARMACEUTICALS CO. LTD., priority 2019, dated 2026)
